According to US20220395007A1, “TASTE MODULATING COMPOUNDS AND METHODS OF IMPROVING THE QUALITY OF FOODS AND BEVERAGES” (Ohio State Innovation Foundation, priority 2019, published 2022):

Tests used:
[1] = test system: perceived bitterness intensity of a coffee rated as having a high bitter intensity; assay: Sensory panel evaluation of perceived bitterness intensity of coffee brew; format: in vivo, human; settings: compound added individually to high-bitter coffee (4-CQA about 177 mg/L, 5-CQA about 181 mg/L, 2-GA about 45 mg/L); eight trained panelists, nose clips, room temperature, duplicate; p<0.05
Protocol: 4-CQA (4-caffeoylquinic acid) (about 177 mg/L), 5-CQA (5-caffeoylquinic acid) (about 181 mg/L), and 2-GA (2-O-β-D-glucopyranosyl-atractyligenin) (about 45 mg/L) were added individually or as a group to a coffee rated as having a high bitter intensity. Five mL of each sample at room temperature was presented to experienced sensory panelists in 1 oz black cups labeled with 3-digit codes in random order. Eight trained panelists, recruited by Flavor Research and Education Center (FREC) at The Ohio State University, used nose clips during the evaluation in order to prevent interactions with olfactory responses. Between samples, panelists waited a minimum of 90 seconds and were asked to cleanse their palate using crackers and water. All evaluations were conducted in duplicate using Compusense Cloud software (Compusense Inc., Guelph, ON, Canada). […] FIGS. 1 and 2.

[2] = test system: taste attributes in isolation; assay: Taste attributes of the compounds in isolation, by consensus of experienced sensory panelists; format: in vivo, human; settings: same concentrations as in coffee, 5 experienced panelists by consensus
Protocol: The taste attributes 4-CQA, 5-CQA, and 2-GA in isolation were further evaluated by 5 experienced sensory panelists by consensus. Each compound was dissolved in 5 mL nanopure water and 5 mL buffer (0.05 M sodium phosphate butter adjusted to pH 5.77 with 0.1 M citric acid) at the same concentrations described above. […] This led to the confirmation that 4-CQA, 5-CQA, and 2-O-β-D-glucopyranosyl-atractyligenin were bitter modulators that suppressed perception.

[3] = dissolved in 5 mL buffer (0.05 M sodium phosphate adjusted to pH 5.77 with 0.1 M citric acid)
[4] = dissolved in 5 mL nanopure water

C=C1[C@@H]2CCC3[C@@](CC[C@@H]4[C@H](C(=O)O)C[C@@H](O[C@@H]5O[C@H](CO)[C@@H](O)[C@H](O)[C@H]5O)C[C@@]34C)(C2)[C@H]1O (stereo partly drawn) [2-GA, 2-O-β-D-glucopyranosyl-atractyligenin]
perceived bitterness intensity of the coffee brew [1]: significantly reduce | taste attribute in isolation [2, 3]: no obvious taste character | taste attribute in isolation [2, 4]: no obvious taste character

O=C(/C=C/c1ccc(O)c(O)c1)O[C@H]1C(O)C[C@](O)(C(=O)O)C[C@H]1O (stereo partly drawn) [4-CQA, 4-O-caffeoylquinic acid]
perceived bitterness intensity of the coffee brew [1]: significantly reduce | taste attribute in isolation [2, 3]: very weak sour taste | taste attribute in isolation [2, 4]: very weak sour taste

O=C(/C=C/c1ccc(O)c(O)c1)O[C@@H]1C[C@@](O)(C(=O)O)C[C@@H](O)[C@@H]1O [5-CQA, 5-O-caffeoylquinic acid]
perceived bitterness intensity of the coffee brew [1]: significantly reduce | taste attribute in isolation [2, 3]: very weak sour taste | taste attribute in isolation [2, 4]: very weak sour taste
